ChEMBL document CHEMBL5096127, “Using ChEMBL to complement schistosome drug discovery” (2023)
Activity calls are given as the source filed them. The rule behind the calls is not given here. Square brackets hold non-standard residues; d marks the D form. Peptide text beside a SMILES is read from it. * marks the point of attachment. Benzoyl(4-tBu) = CC(C)(C)c1ccc(C(=O)*)cc1; Lys(Et2) = CCN(CC)CCCC[C@H](N)C(=O)O; Cbz = O=C(OCc1ccccc1)*

How the values were obtained:
Schistosoma mansoni [1] = test: In vitro activity on S. mansoni schistosomula at 50 uM; format: functional, organism-based; design: test concentration 50 uM, temperature 37 degree C, time incubation 72 h; conditions: Puerto Rican
Schistosoma mansoni [2] = test: In vitro activity on S. mansoni schistosomula at 10 uM; format: functional, organism-based; design: test concentration 10 uM, temperature 37 degree C, time incubation 72 h; conditions: Puerto Rican
Schistosoma mansoni [3] = test: EC50 on S. mansoni schistosomula; format: functional, organism-based; conditions: Puerto Rican
Schistosoma mansoni [4] = format: functional, Puerto Rican; conditions: temperature 37 degree C; tested at 10 uM; Worm movement inhibition (compared to DMSO control)_lower value 0 %; Worm movement inhibition (compared to DMSO control)_upper value 100 %
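Throughout, for Worm movement inhibition: in vitro assay using adult worms.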

SMILES | In vitro activity (Schistosoma mansoni [1]) | In vitro activity (Schistosoma mansoni [2]) | EC50 (Schistosoma mansoni [3]) [nM] | Worm movement inhibition (Schistosoma mansoni [4]) [%]
Oc1ccc(Nc2nc(-c3ccc(Cl)cc3)cs2)cc1 | Active | inactive |  | 
COc1ncc(-c2ccc3nc(N)n(-c4ccccc4C(F)(F)F)c(=O)c3c2)cc1S(=O)(=O)Nc1ccc(F)cc1F | Active | inactive |  | 
O=C(CCCCCCNC(=O)c1cnc(N(c2ccccc2)c2ccccc2)nc1)NO | inactive | inactive |  | 
Nc1ccc(-c2ccc(F)cc2)cc1NC(=O)C1CCOCC1 | inactive | inactive |  | 
Fc1ccc(Cl)cc1-c1nc(Nc2ccncc2)c2nccnc2n1 | inactive | inactive |  | 
C[C@H]1CCCC(=O)CCCCCc2cc(O)cc(O)c2C(=O)O1 | inactive | inactive |  | 
CN1CCC(NC(=O)c2cc(-c3c(O)cc(O)cc3Oc3ccc([N+](=O)[O-])cc3)on2)CC1 | inactive | inactive |  | 
COc1ccc(-c2nc(N)ncc2-c2csc(C)n2)c(O)c1 | inactive | inactive |  | 
CCc1cc(-c2[nH]nc(C)c2-c2ccc3c(c2)OCCO3)c(O)cc1O | Active | inactive |  | 
Nc1nc2c(ncn2[C@@H]2O[C@H](COP(=O)(O)OP(=O)(O)O)[C@@H](O)[C@H]2O)c(=O)[nH]1 | inactive | inactive |  | 
Cc1cc(Nc2cc(N3CCN(C)CC3)nc(Sc3ccc(NC(=O)C4CC4)cc3)n2)n[nH]1 | Active | inactive |  | 
c1ccc(-c2n[nH]cc2-c2ccnc3ccccc23)nc1 | inactive | inactive |  | 
Cc1cccc(-c2nc(Nc3ccncc3)c3ccccc3n2)n1 | Active | Active | 2620 | 40.28
CN(C)CCCn1cc(C2=C(c3c[nH]c4ccccc34)C(=O)NC2=O)c2ccccc21 | Active | inactive |  | 
COc1ccc2c(c1)[nH]c1c(C)nccc12 | inactive | inactive |  | 
CC1(C)Cc2c(sc(NC(=S)NC(=O)c3ccccc3)c2C(=O)O)CO1 | inactive | inactive |  | 
Cc1cccc(-c2nn3c(c2-c2ccnc4ccc(C(N)=O)cc24)CCC3)n1 | inactive | inactive |  | 
CNC(=O)c1ccc(Nc2nc(OC3CCCC3)c3c(-c4ccc5nc(C)oc5c4)c[nH]c3n2)c(OC)c1 | inactive | inactive |  | 
CCN(CC)Cc1ccc2cc(COC(=O)Nc3ccc(C(=O)NO)cc3)ccc2c1 | inactive | inactive |  | 
COc1ncc2cc(C(=O)Nc3cc(C(=O)NCc4cccc(Cl)c4)ccc3Cl)c(=O)[nH]c2n1 | inactive | inactive |  | 
CC(=O)N1CCc2c(c(Nc3ccc(-c4cnn(C)c4)cc3F)nn2[C@H]2CCOC2)C1 | inactive | inactive |  | 
CN1CCN(C(=O)CN[C@H]2C[C@@H]2c2ccc(OCc3ccccc3)cc2)CC1 | Active | inactive |  | 

SMILES | In vitro activity (Schistosoma mansoni [1]) | In vitro activity (Schistosoma mansoni [2]) | EC50 (Schistosoma mansoni [3]) [nM] | Worm movement inhibition (Schistosoma mansoni [4]) [%]
CC(C)NCCCn1c(Sc2cc3c(cc2I)OCO3)nc2c(N)ncnc21 | Active | inactive |  | 
O=C(CCCCCN1C(=O)c2cccc3cccc(c23)C1=O)NO | inactive | inactive |  | 
C[S+]([O-])c1ccc(-c2nc(-c3ccc(F)cc3)c(-c3ccncc3)[nH]2)cc1 (stereo not given) | inactive | inactive |  | 
Cc1cc(/N=N/c2cc(S(=O)(=O)O)c(C)cc2C)c(N)cc1O | inactive | inactive |  | 
Cc1nccc(-c2cn(Cc3ccccc3)c3cnccc23)n1 | Active | inactive |  | 
O=C(NO)c1cnc(NC2(c3ccccc3)CC2)nc1 | inactive | inactive |  | 
CN[C@@H]1C[C@H]2O[C@@](C)([C@@H]1OC)n1c3ccccc3c3c4c(c5c6ccccc6n2c5c31)C(=O)NC4 | Active | Active |  | 
COc1cc(Nc2ncc(F)c(Nc3ccc4c(n3)NC(=O)C(C)(C)O4)n2)cc(OC)c1OC | inactive | inactive |  | 
CCN1CCN(Cc2ccc(NC(=O)Nc3ccc(Oc4cc(NC)ncn4)cc3)cc2C(F)(F)F)CC1 | Active | inactive |  | 
O=C(O)C[C@@H]1C(=O)O[C@H]2[C@@H]3OC(=O)c4cc(O)c(O)c(O)c4-c4c(cc(O)c(O)c4O)C(=O)OC[C@H]2O[C@@H](OC(=O)c2cc(O)c(O)c(O)c2)[C@@H]3OC(=O)c2cc(O)c(O)c3c2[C@H]1[C@H](O)C(=O)O3 | inactive | inactive |  | 
CC(O)(CC(=O)O)CC(=O)O | inactive | inactive |  | 
O=C1Nc2cc(Br)ccc2/C1=C1/Nc2ccccc2/C1=N\O [6BIO] | Active | Active |  | 95.74
C#Cc1cccc(Nc2ncnc3cc(OC)c(OCCCCCCC(=O)NO)cc23)c1 | inactive | inactive |  | 
O=C(O)c1ccc(CN2CCC(CN[C@@H]3C[C@H]3c3ccccc3)CC2)cc1 | inactive | inactive |  | 
CC(C)c1cccc(=O)c(O)c1 | inactive | inactive |  | 
Nc1nc(N)c2nc(-c3cccc(O)c3)c(-c3cccc(O)c3)nc2n1 | inactive | inactive |  | 
CNC(=O)c1c(F)cccc1Nc1nc(Nc2cc3c(cc2OC)CCN3C(=O)CN(C)C)nc2[nH]ccc12 | Active | inactive |  | 
O=C(CCCCCCC(=O)Nc1cccnc1)NO | inactive | inactive |  | 
O=C(c1ccc(/C=C/c2n[nH]c3ccccc23)cc1)N1CCNCC1 | Active | inactive |  | 
O=C(/C=C/c1ccc(CN(CCO)CCc2c[nH]c3ccccc23)cc1)NO | Active | inactive |  | 
O=C1NC(=O)/C(=C/c2ccc3nccnc3c2)S1 | Active | inactive |  | 
CCN1/C(=C/C(C)=O)Sc2ccc(O)cc21 | inactive | inactive |  | 

SMILES | In vitro activity (Schistosoma mansoni [1]) | In vitro activity (Schistosoma mansoni [2]) | EC50 (Schistosoma mansoni [3]) [nM] | Worm movement inhibition (Schistosoma mansoni [4]) [%]
CSc1cccc(Nc2ncc3cc(-c4c(Cl)cccc4Cl)c(=O)n(C)c3n2)c1 | inactive | inactive |  | 
Nc1nc(Nc2ccc(S(N)(=O)=O)cc2)nn1C(=O)c1c(F)cccc1F | inactive | inactive |  | 
CCCCc1nc2cc(/C=C/C(=O)NO)ccc2n1CCN(CC)CC | inactive | inactive |  | 
O=C(/C=C/c1ccc2c(ccn2S(=O)(=O)c2ccccc2)c1)NO | Active | inactive |  | 
N[C@H]1C[C@@H]1c1ccc(-c2cccc(O)c2)cc1 | Active | inactive |  | 
CC(C)C[C@@H](C=O)NC(=O)[C@H](CC(C)C)NC(=O)[C@H](CC(C)C)NC(=O)OCc1ccccc1 (Cbz-Leu-Leu-Leu-aldehyde) | Active | inactive |  | 
Cc1nc2c(OCc3ccccc3)cccn2c1CC#N | inactive | inactive |  | 
NC(=O)c1ccc(-c2nc(-c3ccccn3)c(-c3ccc4c(c3)OCO4)[nH]2)cc1 | Active | inactive |  | 
Nc1ncnc2c1ncn2[C@@H]1O[C@H](COP(=O)(O)OP(=O)(O)O)[C@@H](O)[C@H]1O | inactive | inactive |  | 
O=C(O[C@H]1[C@@H]2C=CO[C@@H](O[C@@H]3O[C@H](CO)[C@@H](O)[C@H](O)[C@H]3O)[C@@H]2[C@@]2(CO)O[C@@H]12)c1ccc(O)cc1 | inactive | inactive |  | 
COc1ccc(-c2c(-c3ccc(O)cc3O)n[nH]c2C)cc1 | inactive | inactive |  | 
O=C1NCCCc2c1oc1ccc(O)cc21 | inactive | inactive |  | 
C[C@]12CC[C@H](O)C[C@H]1CC[C@@H]1[C@@H]2CC[C@]2(C)[C@@H](C3=CC(=O)OC3)CC[C@]12O | Active | inactive |  | 
CCOC(=O)NCCCC(=O)NCCc1ccccc1 | inactive | inactive |  | 
Cc1cccc(-c2[nH]c(C(C)(C)C)nc2-c2ccc3c(c2)OCO3)n1 | inactive | inactive |  | 
O=C(NC1CCNCC1)c1n[nH]cc1NC(=O)c1c(Cl)cccc1Cl | inactive | inactive |  | 
COc1ccc(F)c(F)c1C(=O)c1cnc(NC2CCN(S(C)(=O)=O)CC2)nc1N | inactive | inactive |  | 
CN(C)Cc1c(C(=O)NCCOc2ccc(C(=O)NO)cc2)oc2ccccc12 | Active | inactive |  | 
CC[C@@]1(O)C(=O)OCc2c1cc1n(c2=O)Cc2cc3ccccc3nc2-1 | Active | inactive |  | 
CC(=O)Nc1ccc(C(=O)Nc2cc(-c3cccs3)ccc2N)cc1 | inactive | inactive |  | 
CC(C)(C)c1cnc(CSc2cnc(NC(=O)C3CCNCC3)s2)o1 | inactive | inactive |  | 
CCN(CC)CCCC[C@H](NC(=O)[C@H](CC(C)C)NC(=O)[C@H](C)NC(=O)[C@H](Cc1ccccc1)NC(=O)c1ccc(C(C)(C)C)cc1)C(=O)N[C@@H](CO)C(=O)OC ({Benzoyl(4-tBu)}-FAL[Lys(Et2)]S-OMe) | inactive | inactive |  | 
